Data set [1] is described as follows: Safety assessment in the clinical study (adverse events, local irritation). The class given is in vivo. The conditions noted are these: 180 mg Tobramycin per ml, healthy subjects. The method, then:
According to one aspect of the present disclosure, a pharmaceutical solution comprising 180 mg Tobramycin per ml water is used. This corresponds to approximately 3 fold the concentration of the solution in the marketed product (TOBI®). Tobramycin at 60 mg/mL is known to be well tolerated in healthy volunteers even at higher total dose levels; however it is considered that this increase in concentration potentially increases the risk of local irritation, but is not considered to be the primary driver for systemic exposure or systemic side effects in this study since the total dose level is lower.
Safety was assessed as well by reviewing adverse events data and vital signs data including pulse oximetry and spirometry data.

The nature of data set [2]: Gamma scintigraphy lung deposition, two way crossover study. As to conditions: standard treatment, 300 mg using 5 mL in a Pari nebulizer.
Method: To assess the lung deposition of Tobramycin according to the therapeutic method according to the present disclosure, a two way non-randomised crossover study to studying the pulmonary distribution and pharmacokinetics in healthy subjects following single dose administration of Tobramycin via the Tobrair® device and PARI LC® PLUS jet nebulizer was performed. The study was designed as an open-labelled study as it is not possible to mask the identity of the aerosol delivery system used.
18 healthy, voluntary males and healthy, voluntary, non-pregnant, non-lactating females where subjected to the following treatment regimes:
Approximately 63 mg Tobramycin (180 mg/mL×0.35 mL) delivered to the lungs via the novel Tobrair® device over 7 deep, slow inhalations.
Gamma scintigraphy may also provide an assessment of the regional distribution of deposited drug or formulation in the lungs, with central regions representing mainly large airways and peripheral regions representing mainly small airways and alveoli.
In order to use gamma scintigraphy to assess the bronchopulmonary distribution of Tobramycin, the drug solution was labelled with a gamma emitting radioisotope as a surrogate marker. More specifically, technetium-99m diethylene triamine pentacetic acid (^99mTc-DTPA) was used in this study to achieve 10-20 MBq per dose using the Tobrair® device and PARI LC® PLUS jet nebulizer.

`NCC1OC(OC2C(N)CC(N)C(OC3OC(CO)C(O)C(N)C3O)C2O)C(N)CC1O` [Tobramycin, (2S,3R,4S,5S,6R)-4-amino-2-{[(1S,2S,3R,4S,6R)-4,6-diamino-3-{[2R,3R,5S,6R)-3-amino-6-(aminomethyl)-5-hydroxyoxan-2-yl]oxy}-2-(hydroxymethylcyclohexyl]oxy)-6-(hydroxymethyl)oxane-3,5-diol]: the local irritation result in data set [1] is “only a few incidents of local irritation”. Besides, the “dose reaching the lungs” value in data set [2] is listed as “approx. 10%”.
